Reference: US20250163057A1, “DCN-1 MODULATING COMPOUNDS AND METHODS OF USE THEREOF” (Cellarity, Inc., priority 2023, published 2025)
Read-outs that look alike come from different tables or passages of the source.

How the values were obtained:
[1] = system: Cullin-3 (CUL3) neddylation; test: AlphaLISA assay for Cullin-3 (CUL3) neddylation in TF 1 cells; assay type: cell-based; conditions: Homo sapiens, TF-1, 3 h, 3 hours treatment
How it was run: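 Neddylated CUL3 was quantified by AlphaLISA in lysates of TF 1 cells exposed for 3 h to test compound in IMDM without supplements. Percent inhibition set between vehicle and 1 μM DI-1548 positive control; IC50 derived by Hill-equation fitting of dose-response curves.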

[2] = target: DCN1 (DCUND1) protein PONY domain (Homo sapiens (Human), UniProt Q96GG9); test: TR-FRET assay, DCN1 binding with FAM-labeled probe
How it was run: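 First, the E. coli-derived PONY domain was biotinylated and paired with streptavidin Tb cryptate. Compounds in 0.1% DMSO were then added to DCN1 and FAM-probe (5 nM/20 nM, or 0.31 nM/900 nM total with 800 nM unlabelled) in TritonX, 200 mM NaCl buffer. Finally, TR-FRET ratios were recorded at 1, 5 and 24 hrs.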

[3] = 24 hr after treatment with compound, read-out: TR FRET IC50 24 hr
[4] = TR FRET IC50 1 hr (nM), 1 hr after treatment with compound
[5] = read-out: TR FRET IC50 1 hr, 1 hr after treatment with compound

Sequence of DCN1 (DCUND1) protein PONY domain (Q96GG9 60-248): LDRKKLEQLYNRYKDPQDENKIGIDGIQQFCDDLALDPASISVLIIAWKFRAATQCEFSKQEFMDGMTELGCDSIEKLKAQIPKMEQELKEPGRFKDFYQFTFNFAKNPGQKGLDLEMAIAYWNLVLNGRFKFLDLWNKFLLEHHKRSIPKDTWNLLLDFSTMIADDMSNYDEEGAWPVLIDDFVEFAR

SMILES	IC50 [1] [nM]	IC50 [2, 3] [nM]	IC50 [2, 4] [nM]	IC50 [2, 5] [nM]
CCN1C(=O)[C@@H](NC(=O)c2nccc(C(F)(F)F)n2)[C@H](c2ccc(F)cc2)c2c(CN(C)C(=O)CC#N)nn(-c3ccccc3)c21 [Compound I-402, N-((4R,5S)-3-((2-cyano-N-methylacetamido)methyl)-7-ethyl-4-(4-fluorophenyl)-6-oxo-1-phenyl-4,5,6,7-tetrahydro-1H-pyrazolo[3,4-b]pyridin-5-yl)-4-(trifluoromethyl)pyrimidine-2-carboxamide]	100 to 1000	1000 to 3000	1000 to 3000	–
CCN1C(=O)[C@@H](NC(=O)c2cccc(C(F)(F)F)c2)[C@H](c2ccc(F)cc2)c2c(CN(C)C(=O)CC#N)nn(-c3ccccc3)c21 [Compound I-403]	100 to 1000	200 to 1000	200 to 1000	–
CCN1C(=O)[C@H](NC(=O)c2cccc(C(F)(F)F)c2)[C@H](C2CC2)c2c(C(=O)N(CC#N)C3CC3)nn(C3CCOCC3)c21 [Compound I-405]	> 1000	1000 to 3000	1000 to 3000	–
CCN1C(=O)[C@@H](NC(=O)c2nccc(C(F)(F)F)n2)[C@@H](c2ccc(F)cc2)c2c(CNC(=O)/C=C/C(=O)OC(C)(C)C)nn(-c3ccccc3)c21 [Compound I-408]	100 to 1000	≤ 200	–	≤ 200
CCN1C(=O)[C@H](NC(=O)c2cccc(C(F)(F)F)c2)[C@H](c2ccc(F)cc2)c2c([C@H](C)NC#N)nn(-c3ccccc3)c21 [Compound I-410]	100 to 1000	200 to 1000	1000 to 3000	–
CCN1C(=O)[C@@H](NC(=O)c2cccc(C(F)(F)F)c2)[C@@H](c2ccc(F)cc2)c2c([C@@H](C)NC#N)nn(C3CCOCC3)c21 [Compound I-412]	100 to 1000	≤ 200	–	≤ 200
CCN1C(=O)[C@H](NC(=O)c2cccc(C(F)(F)F)c2)[C@H](c2ccc(F)cc2)c2c(C(=O)N(CC#N)C3CC3)nn(C3CCOCC3)c21 [Compound I-414]	> 1000	1000 to 3000	1000 to 3000	–
CCN1C(=O)[C@@H](NC(=O)c2cccc(C(F)(F)F)c2)[C@@H](c2ccc(F)cc2)c2c(C(=O)N3[C@H](C)CC[C@H]3C#N)nn(C3CCOCC3)c21 [Compound I-416]	100 to 1000	200 to 1000	1000 to 3000	–
CCN1C(=O)[C@@H](NC(=O)c2cccc(C(F)(F)F)c2)[C@@H](c2ccc(F)cc2)c2c(CN(C)CC#N)nn(-c3ccccc3)c21 [Compound I-417]	100 to 1000	200 to 1000	1000 to 3000	–
CCCn1nc(C(=O)N(CC#N)C2CC2)c2c1N(CC)C(=O)[C@@H](NC(=O)c1cccc(C(F)(F)F)c1)[C@H]2C1CC1 [Compound I-427]	100 to 1000	200 to 1000	1000 to 3000	–
CCCn1nc(C(=O)N2CCC[C@H]2C#N)c2c1N(CC)C(=O)[C@@H](NC(=O)c1cccc(C(F)(F)F)c1)[C@H]2c1ccc(F)cc1 [Compound I-428]	≤ 100	≤ 200	200 to 1000	–
CCN1C(=O)[C@@H](NC(=O)c2cccc(C(F)(F)F)c2)[C@@H](C2CC2)c2c(C(=O)N(C)[C@H](C#N)CCN(C)C3COC3)nn(C3CCOCC3)c21 [Compound I-429]	≤ 100	≤ 200	–	≤ 200
CCN1C(=O)[C@@H](NC(=O)c2ccn(C(F)F)n2)[C@@H](C2CC2)c2c(C(=O)N3[C@H](C#N)C[C@H]4C[C@H]43)nn(C3CCOCC3)c21 [Compound I-432]	100 to 1000	≤ 200	200 to 1000	–
CCN1C(=O)[C@@H](NC(=O)c2cccc(C(F)(F)F)c2)[C@@H](C2CC2)c2c(C(=O)N3CCC=C3C#N)nn(C3CCOCC3)c21 [Compound I-437]	> 1000	≤ 200	1000 to 3000	–
